tested on: Stat5; assay: Selectivity: Stat5 phosphorylation in EGF-stimulated MDA-MB-468 cells; assay type: cell-based; conditions: serum starved MDA-MB-468 cells, 2 hr
Procedure: (§1) Compounds were screened at 5 μM for their ability to inhibit IL-4 stimulated phosphorylation of STAT6 in Beas-2B immortalized human airway cells. Cells were treated with prodrug for 2 hr and then stimulated with IL-4. After 30 min cells were lysed and pSTAT6 and total STAT6 were measured with western blots (FIG. 7). Without being bound by theory, the inhibition observed is consistent with compounds entering cells, being stripped of the POM groups, binding to the SH2 domain of STAT6, blocking binding to IL-4Rα and preventing phosphorylation of Tyr641. […] Compounds resulting in <10% residual phosphorylation were taken on to MTS cytotoxicity assays and dose response assays. (FIG. 8). The cyclic aromatic amides PM-63I, PM-80I, PM-81I, and PM-86I were very potent with IC50 values from 50-500 nM. […] With the exception of PM-43I, concentrations that inhibit STAT6 phosphorylation are 20-100 fold lower than those resulting in toxicity. STAT6 inhibitors were assayed for their ability to inhibit the phosphorylation of STAT 1, STAT 3, STAT 5, Akt, and FAK, all processes that depend on SH2 domain-phosphotyrosine interactions (Mandal, P. K. et al. 2011). Serum starved MDA-MB-468 breast cancer cells were treated with STAT6 inhibitors for 2 hr and then were stimulated with EGF (See FIGS. 9A and 9B).

Row | Compound | cross reactivity with Stat5
1 | C/C(=C\C(=O)N[C@H](C(=O)N1CCC[C@H]1C(=O)N1CCc2ccccc21)C(C)(C)C)c1ccc(C(F)(F)P(=O)(OCOC(=O)C(C)(C)C)OCOC(=O)C(C)(C)C)cc1 [PM-63I] | significant cross reactivity

tested on: not listed separately; assay: Toxicity: weights of mice during challenge with different doses; assay type: in vivo; conditions: different doses
Procedure: (§2) The issue of toxicity was addressed with the newer synthetic STAT6 peptidomimetic agents 86i and 43i in two ways. First, the inventors determined the effect of each inhibitor on asthma-related parameters in fungus-challenged mice. […] Second, the weights of mice were measured during challenge with the different doses of both STAT6 inhibitors.

Row | Compound | toxicity by weight gain over the period of drug administration
2 | C/C(=C\C(=O)N[C@H](C(=O)N1CCC[C@H]1C(=O)N1CCCc2ccccc21)C(C)(C)C)c1ccc(C(F)(F)P(=O)(OCOC(=O)C(C)(C)C)OCOC(=O)C(C)(C)C)cc1 [PM-86I] | no toxicity

tested on: asthma-related parameters; assay: Dose effect on asthma-related parameters in fungus-challenged mice; assay type: in vivo; conditions: dose of 5 micrograms
Procedure: as §2
Mice were challenged intranasally with a clinical isolate of 4×10^5 A. niger conidia every two days for a total of 8 challenges and treated with 50 μg of the indicated β-agonist, liposome vehicle (DLPC) and/or PM-242H (5 or 50 μg) intranasally as indicated and the allergic airway disease phenotype was determined according to previously described methods (Porter, P. et al. 2009).
Allergic airway disease was assessed as previously described (Porter, P. et al. 2009). Changes in respiratory system resistance (RRS) in response to intravenous acetylcholine challenge, bronchoalveolar lavage (BAL) fluid differential counts, and analysis of lung IL-4, IL-17A and IFN-γ producing cells by enzyme linked immunocell spot assay (ELISpot) were performed as previously described (Lee, S. H. et al. 2003; Polikepahad, S. et al. 2010).

Row | Compound | inhibition of airway hyperresponsiveness | inhibition of airway inflammation | inhibition of lung IL-4 responses
3 | C/C(=C\C(=O)N[C@H](C(=O)N1CCC[C@H]1C(=O)N1CCCc2ccccc21)C(C)(C)C)c1ccc(C(F)(F)P(=O)(OCOC(=O)C(C)(C)C)OCOC(=O)C(C)(C)C)cc1 [PM-86I] | intermediately effective | maximally effective | maximally effective

same assay, conditions: dose of 50 micrograms

Row | Compound | inhibition of airway hyperresponsiveness
4 | C/C(=C\C(=O)N[C@H](C(=O)N1CCC[C@H]1C(=O)N1CCCc2ccccc21)C(C)(C)C)c1ccc(C(F)(F)P(=O)(OCOC(=O)C(C)(C)C)OCOC(=O)C(C)(C)C)cc1 [PM-86I] | maximally effective

same assay, conditions: dose of 50 micrograms; to sham-treated levels

Row | Compound | lung inflammation and IL-4 responses
5 | C/C(=C\C(=O)N[C@H](C(=O)N1CCC[C@H]1C(=O)N1CCCc2ccccc21)C(C)(C)C)c1ccc(C(F)(F)P(=O)(OCOC(=O)C(C)(C)C)OCOC(=O)C(C)(C)C)cc1 [PM-86I] | rebound

biological target: T1, STAT6 (Homo sapiens, UniProt P42226); assay: Fluorescence polarization competition with FAM-labelled IL-4Rα Tyr631 phosphopeptide for binding to STAT6; conditions: other phosphate-containing STAT6 inhibitors; competition with FAM-Ala-pTyr-Lys-Pro-Phe-Gln-Asp-Leu-Ile-NH2
T1 sequence (P42226 1-847): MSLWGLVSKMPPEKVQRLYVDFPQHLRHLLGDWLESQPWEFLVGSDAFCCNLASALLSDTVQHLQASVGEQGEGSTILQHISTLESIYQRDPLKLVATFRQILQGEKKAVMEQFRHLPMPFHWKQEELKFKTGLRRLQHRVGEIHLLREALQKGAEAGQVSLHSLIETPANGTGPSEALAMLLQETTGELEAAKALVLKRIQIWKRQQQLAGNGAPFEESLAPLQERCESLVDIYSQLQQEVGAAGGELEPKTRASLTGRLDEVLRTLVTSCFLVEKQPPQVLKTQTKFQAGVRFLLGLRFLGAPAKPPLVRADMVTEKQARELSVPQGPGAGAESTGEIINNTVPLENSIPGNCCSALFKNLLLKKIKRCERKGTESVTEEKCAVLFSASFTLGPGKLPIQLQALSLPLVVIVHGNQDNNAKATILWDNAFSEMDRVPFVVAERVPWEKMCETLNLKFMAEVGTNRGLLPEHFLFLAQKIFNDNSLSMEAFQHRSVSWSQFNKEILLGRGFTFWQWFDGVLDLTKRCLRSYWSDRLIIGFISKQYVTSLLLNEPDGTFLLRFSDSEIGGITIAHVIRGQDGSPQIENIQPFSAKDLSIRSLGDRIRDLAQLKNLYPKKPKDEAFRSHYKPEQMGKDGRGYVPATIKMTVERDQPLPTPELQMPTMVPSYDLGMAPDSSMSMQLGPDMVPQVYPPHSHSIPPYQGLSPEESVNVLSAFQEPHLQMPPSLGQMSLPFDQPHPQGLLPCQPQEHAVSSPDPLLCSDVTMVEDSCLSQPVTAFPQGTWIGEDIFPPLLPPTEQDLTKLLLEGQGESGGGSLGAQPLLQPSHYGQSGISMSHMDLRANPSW
Text: The following structures as phosphate esters were synthesized and assayed them for the ability to compete with FAM-Ala-pTyr-Lys-Pro-Phe-Gln-Asp-Leu-Ile-NH2, derived from Tyr631 of IL-4Rα, for binding to STAT6 using fluorescence polarization (FAM=5-carboxyfluorescein). The fluorescence polarization methodology was adapted from Wu et al., 1997, which is incorporated herein by reference. Amide bond replacements, cyclic amides, and cyclic lactams in the central part of the compound were explored.

Row | Compound | IC50
6 | C/C(=C\C(=O)N[C@H](C(=O)N1CCC[C@H]1C(=O)N(C)C1CCCCC1)C(C)(C)C)c1ccc(OP(=O)(O)O)cc1 [PM-70I] | 230 ± 140 nM
7 | CC(C)(C)[C@H](NC(=O)/C=C/c1ccc(OP(=O)(O)O)cc1)C(=O)N1CCC[C@H]1C(=O)N(c1ccccc1)c1ccc(I)cc1 [PM-287H] | 73 ± 10 nM
8 | CC(C)(C)[C@H](NC(=O)/C=C/c1ccc(OP(=O)(O)O)cc1)C(=O)N1CCC[C@H]1C(=O)N(c1ccccc1)c1ccccc1 [PM-300H-A] | 120 ± 40 nM
9 | C/C(=C\C(=O)N[C@H](C(=O)N1CCC[C@H]1C(=O)N(c1ccccc1)c1ccc(I)cc1)C(C)(C)C)c1ccc(OP(=O)(O)O)cc1 [PM-286H] | 53 ± 10 nM
10 | C/C(=C\C(=O)N[C@H](C(=O)N1CCC[C@H]1C(=O)N(C)c1ccccc1)C(C)(C)C)c1ccc(OP(=O)(O)O)cc1 [PM-301H] | 117 ± 30 nM
11 | C/C(=C\C(=O)N[C@H](C(=O)N1CCC[C@H]1C(=O)N(c1ccccc1)c1ccccc1)C(C)(C)C)c1ccc(OP(=O)(O)O)cc1 [PM-300H-B] | 89 ± 10 nM
12 | CCN(CC)C(=O)[C@@H]1CCCN1C(=O)[C@@H](NC(=O)/C=C(\C)c1ccc(OP(=O)(O)O)cc1)C(C)(C)C [PM-302H-B] | 377 ± 90 nM
13 | C/C(=C\C(=O)N[C@H](C(=O)N1CCC[C@H]1C(=O)Nc1ccccc1)C(C)(C)C)c1ccc(OP(=O)(O)O)cc1 [PM-302H-A] | 268 ± 70 nM
14 | C/C(=C\C(=O)N[C@H](C(=O)N[C@@H](C)C(=O)N(C)c1ccccc1)C(C)(C)C)c1ccc(OP(=O)(O)O)cc1 [PM-26I] | 120 ± 16 nM

same assay, conditions: select phosphate-containing STAT6 inhibitors; competition with FAM-Ala-pTyr-Lys-Pro-Phe-Gln-Asp-Leu-Ile-NH2

Row | Compound | IC50
15 | C/C(=C\C(=O)N[C@H](C(=O)N1CCC[C@H]1C(=O)N1CCCCC1)C(C)(C)C)c1ccc(OP(=O)(O)O)cc1 [PM-67I-A] | 370 ± 90 nM
16 | C/C(=C\C(=O)N[C@H](C(=O)N1CCC[C@H]1C(=O)N1CCc2ccccc21)C(C)(C)C)c1ccc(OP(=O)(O)O)cc1 [PM-59I] | 260 ± 90 nM
17 | C/C(=C\C(=O)N[C@H](C(=O)N1CCC[C@H]1C(=O)N1CCN(C)CC1)C(C)(C)C)c1ccc(OP(=O)(O)O)cc1 [PM-67I-C] | 1900 ± 840 nM
18 | C/C(=C\C(=O)N[C@H]1CCCCN(CC(=O)N(C)c2ccccc2)C1=O)c1ccc(OP(=O)(O)O)cc1 [PM-28I] | 630 ± 13 nM
19 | C/C(=C\C(=O)N[C@H](C(=O)N1CCC[C@H]1C(=O)N1CCCc2ccccc21)C(C)(C)C)c1ccc(OP(=O)(O)O)cc1 [PM-87I] | 240 ± 130 nM
20 | C/C(=C\C(=O)N[C@H](C(=O)NC1CCCCN(c2ccccc2)C1=O)C(C)(C)C)c1ccc(OP(=O)(O)O)cc1 (some centres unmarked) [PM-60I] | 2330 ± 500 nM
21 | C/C(=C\C(=O)N[C@H](C(=O)N1CCC[C@H]1C(=O)N1CCc2ccccc2C1)C(C)(C)C)c1ccc(OP(=O)(O)O)cc1 [PM-71-A] | 50 ± 40 nM
22 | C/C(=C\C(=O)N[C@H](C(=O)N1CCC[C@H]1CCCCc1ccccc1)C(C)(C)C)c1ccc(OP(=O)(O)O)cc1 [PM-10I] | 2090 ± 930 nM
23 | C/C(=C\C(=O)NC1CCc2cccc3c2N(C1=O)[C@H](C(=O)N(C)c1ccccc1)C3)c1ccc(OP(=O)(O)O)cc1 (some centres unmarked) [PM-34I] | 280 ± 60 nM
24 | C/C(=C\C(=O)N[C@H](C(=O)N1CCC[C@H]1C(=O)N1CCOCC1)C(C)(C)C)c1ccc(OP(=O)(O)O)cc1 [PM-67I-B] | 103 ± 50 nM
25 | C/C(=C\C(=O)N[C@H](C(=O)N1CCC[C@H]1/C=C/CCc1ccccc1)C(C)(C)C)c1ccc(OP(=O)(O)O)cc1 [PM-9I] | 771 ± 290 nM

biological target: T1, STAT6; assay: Inhibition of IL-4 (and IL-13) stimulated phosphorylation of STAT6 in Beas-2B cells, western blot; assay type: cell-based; parameters: endogenous in cells; host or cells: Beas-2B immortalized human airway cells; conditions: dose response
Procedure: Compound PM-241H inhibited the phosphorylation of Tyr641 of STAT6 in Beas-2B cells stimulated with IL-4 and IL-13.
as §1
Cells or lungs were isolated and lysed in RIPA buffer (9806S; Cell Signaling, Danvers, Mass.), protein was quantified using BCA Protein Assay Reagent (23227; Thermo Fisher Scientific, Rockford, Ill.) and denatured in Laemmli sample buffer (161-0737; Bio-Rad, Hercules, Calif.) according to manufacturer's protocol. Proteins were separated on SDS-Page gels were hand-poured using a standard electrophoresis unit (Bio-Rad, Hecules, Calif.) and transferred to a membrane using iBlot Gel Transfer Device (IB 1001; Invitrogen, Grand Island, N.Y.). Membranes were blocked in 2% FBS PBST and probed for c-Src, p-c-Src, pErk1/2, Erk1/2, p STAT6, STAT6, pSTAT3, STAT3, pSTAT5, STAT5, Shp-1, and β-actin. Signal was detected with a ChemiDoc XRS+ system (BioRad; Hercules, Calif.).

Row | Compound | IC50
26 | C/C(=C\C(=O)N[C@H](C(=O)N1CCC[C@H]1C(=O)N1CCCCC1)C(C)(C)C)c1ccc(C(F)(F)P(=O)(OCOC(=O)C(C)(C)C)OCOC(=O)C(C)(C)C)cc1 [PM-74I] | 50 nM
27 | C/C(=C\C(=O)N[C@H](C(=O)N1CCC[C@H]1C(=O)N1CCCCc2ccccc21)C(C)(C)C)c1ccc(C(F)(F)P(=O)(OCOC(=O)C(C)(C)C)OCOC(=O)C(C)(C)C)cc1 [PM-80I] | 50 to 500 nM
28 | C/C(=C\C(=O)N[C@H](C(=O)N1CCC[C@H]1C(=O)N1CCc2ccccc2C1)C(C)(C)C)c1ccc(C(F)(F)P(=O)(OCOC(=O)C(C)(C)C)OCOC(=O)C(C)(C)C)cc1 [PM-81I] | 50 to 500 nM
29 | C/C(=C\C(=O)N[C@H](C(=O)N1CCC[C@H]1C(=O)N1CCCc2ccccc21)C(C)(C)C)c1ccc(C(F)(F)P(=O)(OCOC(=O)C(C)(C)C)OCOC(=O)C(C)(C)C)cc1 [PM-86I] | 50 to 500 nM
30 | C/C(=C\C(=O)N[C@H](C(=O)N1CCC[C@H]1C(=O)N1CCc2ccccc21)C(C)(C)C)c1ccc(C(F)(F)P(=O)(OCOC(=O)C(C)(C)C)OCOC(=O)C(C)(C)C)cc1 [PM-63I] | 50 to 500 nM

Reference: patent US10385080B2, “STAT6 inhibitors” (Board of Regents, The University of Texas System, priority 2013, dated 2019)
